The source made the active and inactive calls.
Legend:
[1] = biological target: Luciferin 4-monooxygenase (Photinus pyralis, UniProt P08659); assay: firefly luciferase enzyme inhibitors, dose response, biochemical, luminescence (AID 1891)
[2] = Luminescence Cell-Based Dose Confirmation HTS to Identify Inhibitors of Platelet Dense Granule Release. [Related pubchem assays: 1663 (Primary HTS), 1678 (Summary of Project)]; type: functional
[3] = Fluorescence Cell-Based Dose Response to Identify Inhibitors of Thrombin Receptor-Activating Peptide SFLLRN-Mediated P-Selectin Induction on Platelets. [Related pubchem assays: 1663 (Primary HTS), 1889 (retest at dose ), 1891 (counterscreen), 1678 (Project Summary)]; type: functional
Genome polyprotein = Genome polyprotein (Hepatitis C virus, UniProt Q2Q167); assay: HCV core protein dimerization inhibitors, dose response, biochemical, TR-FRET (AID 2159); parameters: species or system Hepacivirus hominis;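 note: blocks dimerization of HCV core protein measured by TR-FRET between tagged core106 pairs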
[4] = biological target: DNA dC->dU-editing enzyme APOBEC-3G (Homo sapiens, UniProt Q9HC16); assay: Dose Response confirmation of small molecule APOBEC3G DNA Deaminase Inhibitors via a fluorescence-based single-stranded DNA deaminase assay. [Related pubchem assays (depositor defined):AID493012, AID493028]; type: functional
[5] = HeLa 2N DNA content increase, dose response, cell-based, IC50 (AID 1117349); type: functional
[6] = HeLa 4N DNA content increase, dose response, cell-based, IC50 (AID 1117351); type: functional
[7] = P. falciparum 3D7-ScDHODH growth inhibitors, dose response, SYBR Green, dry powder samples (AID 1159570); type: functional, cell-based;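 note: parasite growth measured after 72 hours of compound exposure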
[8] = HepG2 cell cytotoxicity, dose response, cytotoxicity control, plate reader, dry powder samples (AID 1159569); type: functional, cell-based;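 note: inhibitor potency with signal falling toward the positive control level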
[9] = P. falciparum Dd2 growth inhibitors, dose response, SYBR Green, dry powder samples, set 9 (AID 1159568); type: functional, cell-based
[10] = P. falciparum Dd2 growth inhibitors, dose response, SYBR Green, cherry-picked samples (AID 1159567); type: functional, cell-based
[11] = P. falciparum Dd2 growth inhibitors, dose response, SYBR Green, dry powder samples (AID 1159566); type: functional, cell-based;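 note: potency for growth inhibition with lower SYBR green DNA signal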
[12] = Plasmodium falciparum Dd2 Sybr green parasite growth Measured in Cell-Based and Microorganism Combination System Using Plate Reader - 2153-01_Inhibitor_Dose_DryPowder_Activity_Set3.; type: functional
[13] = P. falciparum ATP4 D1247Y mutant growth inhibitors, dose response, NITD609-resistant line, SYBR Green, dry powder (AID 1159571); type: functional, cell-based;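 note: parasites synchronized at ring stage by sorbitol before testing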
[14] = cytotoxicity in HPDE-C7 cells, cell-based, fluorescence, HTS (AID 430); type: functional; conditions: Homo sapiens
[15] = cytotoxicity in KRAS-transformed pancreatic duct cells, primary screen, cell-based, fluorescence, HTS (AID 431); type: functional; conditions: Homo sapiens;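 note: cell line used: HPDE-C7K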
NADPH oxidase 1 = NADPH oxidase 1 (Homo sapiens, UniProt Q9Y5S8); type: functional, cell-based;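 note: Cell-based assay with luminescence read-out, IC50 derived from inhibitor dose-response curves; intracellular ROS from endogenous NOX1 in intact HT29 colon cancer cells; potency of inhibitors that lower the ROS luminescence signal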
[16] = half-maximal inhibitory concentration for glucagon-like peptide-1 release, STC-1 cell line, dose-response (AID 1117345); type: functional, cell-based
[17] = Glucagon-like peptide 1 release potency, NCI-H716 cell line, dose-response, half-maximal inhibitory concentration (AID 1117344); type: functional, cell-based
[18] = A High Throughput Confirmatory Assay used to Identify Novel Compounds that Inhibit Mycobacterium Tuberculosis in the absence of Glycerol.; type: functional

NADPH oxidase 1, sequence (Q9Y5S8 whole entry): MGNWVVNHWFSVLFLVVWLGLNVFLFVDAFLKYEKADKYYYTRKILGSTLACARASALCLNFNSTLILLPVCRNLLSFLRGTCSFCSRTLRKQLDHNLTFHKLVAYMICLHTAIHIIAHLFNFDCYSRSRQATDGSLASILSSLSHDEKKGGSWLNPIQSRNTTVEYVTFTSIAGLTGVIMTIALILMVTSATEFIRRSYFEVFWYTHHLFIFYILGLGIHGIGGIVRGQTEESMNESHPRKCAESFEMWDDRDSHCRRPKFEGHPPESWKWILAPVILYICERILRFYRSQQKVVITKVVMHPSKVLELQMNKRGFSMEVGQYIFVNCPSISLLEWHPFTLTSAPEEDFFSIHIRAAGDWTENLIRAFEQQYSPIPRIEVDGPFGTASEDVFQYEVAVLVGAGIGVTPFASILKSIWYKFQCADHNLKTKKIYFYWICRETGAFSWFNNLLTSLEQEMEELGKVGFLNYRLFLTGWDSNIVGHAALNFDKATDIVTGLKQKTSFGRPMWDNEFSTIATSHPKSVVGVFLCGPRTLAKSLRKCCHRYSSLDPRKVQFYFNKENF
Genome polyprotein, sequence (Q2Q167 whole entry): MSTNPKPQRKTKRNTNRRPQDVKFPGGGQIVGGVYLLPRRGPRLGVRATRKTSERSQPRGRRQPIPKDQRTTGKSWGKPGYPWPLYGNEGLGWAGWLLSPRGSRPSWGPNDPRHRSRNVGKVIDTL
Luciferin 4-monooxygenase, sequence (P08659 whole entry): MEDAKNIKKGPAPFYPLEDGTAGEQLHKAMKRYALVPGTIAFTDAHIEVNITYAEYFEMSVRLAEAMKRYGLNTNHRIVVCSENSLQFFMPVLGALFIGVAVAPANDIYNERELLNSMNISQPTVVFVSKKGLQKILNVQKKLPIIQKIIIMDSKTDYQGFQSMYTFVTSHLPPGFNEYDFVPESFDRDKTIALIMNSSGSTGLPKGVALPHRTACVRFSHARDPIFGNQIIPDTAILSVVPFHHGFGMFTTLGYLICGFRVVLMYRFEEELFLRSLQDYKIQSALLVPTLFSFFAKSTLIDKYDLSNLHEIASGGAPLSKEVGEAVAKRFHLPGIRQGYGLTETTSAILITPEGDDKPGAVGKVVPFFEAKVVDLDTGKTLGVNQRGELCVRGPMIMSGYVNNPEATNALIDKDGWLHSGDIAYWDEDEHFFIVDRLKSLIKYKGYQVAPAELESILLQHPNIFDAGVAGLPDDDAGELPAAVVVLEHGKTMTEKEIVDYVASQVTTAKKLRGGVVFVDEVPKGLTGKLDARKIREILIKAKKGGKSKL
DNA dC->dU-editing enzyme APOBEC-3G, sequence (Q9HC16 whole entry): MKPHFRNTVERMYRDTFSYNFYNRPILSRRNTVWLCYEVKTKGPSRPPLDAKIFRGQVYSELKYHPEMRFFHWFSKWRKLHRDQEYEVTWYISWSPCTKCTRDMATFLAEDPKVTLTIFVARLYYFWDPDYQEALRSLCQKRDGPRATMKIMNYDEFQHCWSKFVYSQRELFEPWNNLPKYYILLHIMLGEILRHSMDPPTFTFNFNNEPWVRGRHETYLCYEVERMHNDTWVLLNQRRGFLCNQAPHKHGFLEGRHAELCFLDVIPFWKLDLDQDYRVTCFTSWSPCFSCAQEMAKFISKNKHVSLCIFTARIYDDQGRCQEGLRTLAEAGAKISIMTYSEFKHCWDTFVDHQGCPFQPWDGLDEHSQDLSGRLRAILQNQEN

COC(=O)CS(=O)(=O)c1ccc2c(c1)CC(=O)N2
EC50 [1]: > 112 µM (not active) | EC50 [2]: 1.45 µM (active) | EC50 [3]: < 1 µM (active)

O=C1c2c(O)cccc2Cc2cccc(O)c21 [ANTHRALIN]
IC50 (Genome polyprotein): > 49.8 µM (not active) | IC50 [4]: > 100 µM (inactive) | IC50 [5]: > 10 µM (inactive) | IC50 [6]: > 10 µM (inactive)

CO[C@@H]1CN(C)C(=O)c2ccc(NC(=O)Nc3ccccc3F)cc2OC[C@@H](C)N(CC2CC2)C[C@H]1C
AC50 [7]: 6.67 µM (active) | AC50 [8]: > 100 µM (inactive) | AC50 [9]: 0.799 µM (active) | AC50 [10]: 0.399 µM (active) | AC50 [11]: 0.0955 µM (active) | AC50 [12]: 3.04 µM (active) | AC50 [13]: 0.961 µM (active)

O=S(=O)(CC(CN1CCCC1)N1CCCC1)c1ccc2ccccc2c1 (stereo unspecified)
EC50 [14]: 2.04 µM (active) | EC50 [15]: 2.38 µM (active)

Clc1ccccc1-c1nc(-c2ccccc2)c(-c2ccccc2)[nH]1
IC50 (NADPH oxidase 1): > 17 µM (not active)

Cc1ccc(S(=O)(=O)c2ccc3c(c2)Sc2ccc(Cl)cc2N3)cc1
IC50 (NADPH oxidase 1): 5.25 µM (active)

COc1ccc(OC(=O)N(CC(=O)O)Cc2ccc(OCCc3nc(-c4ccccc4)oc3C)cc2)cc1 [MURAGLITAZAR]
IC50 [16]: 1.54 µM (active) | IC50 [17]: 36.2 µM (inactive)

COCCOC(=O)c1ccc(NC(=O)COc2ccc([N+](=O)[O-])cc2)cc1
IC50 [18]: > 100 µM (active)
